# According to US20150351401A1 (priority 2012, published 2015):
# System: Puccinia recondita
# Assay: CG1 Preventative control of brown rust on wheat caused by Puccinia recondita (Puccrt P1), greenhouse
# Type: in vivo
# Conditions: 75 ppm spray, wheat seedlings, inoculated next day; % diseased leaf area; untreated control 90
# Experimental: The Spray Solutions were Prepared in Several Steps:
# The stock solution were prepared: a mixture of acetone and/or dimethylsulfoxide and the wetting agent/emulsifier Wettol, which is based on ethoxylated alkylphenoles, in a relation (volume) solvent-emulsifier of 99 to 1 was added to the initial weight of the compound to give a total of 5 ml. Water was then added to total volume of 100 ml. This stock solution was diluted with the described solvent-emulsifier-water mixture to the given concentration.
# CG1 Preventative Control of Brown Rust on Wheat Caused by Puccinia recondita (Puccrt P1)
# The first two developed leaves of pot-grown wheat seedling were sprayed to run-off with an aqueous suspension, containing the concentration of active ingredient or their mixture as described below. The next day the plants were inoculated with spores of Puccinia recondita. To ensure the success the artificial inoculation, the plants were transferred to a humid chamber without light and a relative humidity of 95 to 99% and 20 to 24° C. for 24 h. Then the trial plants were cultivated for 6 days in a greenhouse chamber at 20-24° C. and a relative humidity between 65 and 70%. The extent of fungal attack on the leaves was visually assessed as % diseased leaf area.
row,SMILES,Disease (%) at 75 ppm Puccrt P1
1,OC(Cc1ccccc1Cl)(Cn1cncn1)C1(Cl)CC1 (stereo not drawn) [reference compound],50%
2,OC(Cc1ccc(Oc2ccc(Cl)cc2)cc1Cl)(Cn1cncn1)C1(Cl)CC1 (stereo not drawn) [I-4],20%
3,"OC(Cc1ccc(-c2ccc(Cl)cc2)cc1Cl)(Cn1cncn1)C1(Cl)CC1 (stereo not drawn) [I-3, 1-[2-chloro-4-(4-chlorophenyl)phenyl]-2-(1-chlorocyclopropyl)-3-(1,2,4-triazol-1-yl)propan-2-ol]",20%

# System: Pyricularia oryzae
# Assay: not given
# Type: cell-based
# Conditions: comparison CM1, 7 days after inoculation
row,SMILES,Growth (%) at 8 ppm Pyrior
1,OC(Cc1ccc(Oc2ccc(Cl)cc2)cc1Cl)(Cn1ncnc1S)C1(Cl)CC1 (stereo not drawn) [I-5],0%
2,OC(Cc1ccc(-c2ccc(Cl)cc2)cc1Cl)(Cn1ncnc1S)C1(Cl)CC1 (stereo not drawn) [I-6],0%
3,"OC(Cc1ccccc1Cl)(Cn1ncnc1S)C1(Cl)CC1 (stereo not drawn) [drawing 129, reference compound]",41%

# Same assay, conditions: comparison CM2, 7 days after inoculation
row,SMILES,Growth (%) at 8 ppm Pyrior
1,"OC(Cc1ccccc1Cl)(Cn1ncnc1S)C1(Cl)CC1 (stereo not drawn) [drawing 135, reference compound]",41%
2,OC(Cc1ccc(Oc2ccc(Cl)cc2)cc1Cl)(Cn1ncnc1S)C1(Cl)CC1 (stereo not drawn) [I-5],0%
3,"OC(Cc1ccc(Oc2ccc(Cl)cc2)cc1Cl)(Cn1cncn1)C1CC1 (stereo not drawn) [I-7, 1-[2-Chloro-4-(4-chlorophenoxyl)phenyl]-2-cyclopropyl-3-(1,2,4-triazol-1-yl)propan-2-ol]",0%
